This is an account of results in patent US6897224B2, “Quinoline and isoquinoline derivatives, a process for their production and their use as inflammation inhibitors” (Schering AG, priority 2002, dated 2005).

One experiment has as its target T1, androgen receptor (AR) (Homo sapiens, UniProt P10275).
T1 construct: made in house
T1 sequence (P10275 1-920): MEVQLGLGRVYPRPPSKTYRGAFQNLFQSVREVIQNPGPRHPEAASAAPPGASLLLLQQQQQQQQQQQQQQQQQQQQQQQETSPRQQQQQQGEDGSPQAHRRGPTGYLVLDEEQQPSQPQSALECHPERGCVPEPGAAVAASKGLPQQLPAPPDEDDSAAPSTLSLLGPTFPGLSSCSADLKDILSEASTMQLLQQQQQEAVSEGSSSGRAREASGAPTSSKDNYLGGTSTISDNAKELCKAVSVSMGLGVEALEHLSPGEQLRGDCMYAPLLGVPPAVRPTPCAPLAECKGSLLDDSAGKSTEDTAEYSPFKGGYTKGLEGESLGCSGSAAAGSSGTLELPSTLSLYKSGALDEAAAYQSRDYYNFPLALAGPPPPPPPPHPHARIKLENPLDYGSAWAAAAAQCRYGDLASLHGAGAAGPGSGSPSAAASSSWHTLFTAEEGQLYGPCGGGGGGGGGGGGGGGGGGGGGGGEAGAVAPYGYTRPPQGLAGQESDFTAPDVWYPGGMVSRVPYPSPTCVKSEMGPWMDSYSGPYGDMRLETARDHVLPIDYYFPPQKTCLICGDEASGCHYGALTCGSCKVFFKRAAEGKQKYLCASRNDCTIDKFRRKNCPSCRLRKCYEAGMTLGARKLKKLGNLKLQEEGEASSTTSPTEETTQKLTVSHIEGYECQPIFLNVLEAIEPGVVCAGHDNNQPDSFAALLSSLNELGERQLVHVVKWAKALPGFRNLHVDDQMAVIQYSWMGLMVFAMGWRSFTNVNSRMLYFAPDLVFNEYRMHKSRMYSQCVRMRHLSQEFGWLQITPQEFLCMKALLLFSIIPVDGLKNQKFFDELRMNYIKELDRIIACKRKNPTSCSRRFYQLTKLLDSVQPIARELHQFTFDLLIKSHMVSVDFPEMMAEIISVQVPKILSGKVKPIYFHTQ
In words: Binding to the androgen receptor, recombinantly produced receptor.

Experiment [1] addresses T2, mineral corticoid receptor (MR) (Homo sapiens, UniProt P08235).
T2 construct: made in house
T2 sequence (P08235 1-984): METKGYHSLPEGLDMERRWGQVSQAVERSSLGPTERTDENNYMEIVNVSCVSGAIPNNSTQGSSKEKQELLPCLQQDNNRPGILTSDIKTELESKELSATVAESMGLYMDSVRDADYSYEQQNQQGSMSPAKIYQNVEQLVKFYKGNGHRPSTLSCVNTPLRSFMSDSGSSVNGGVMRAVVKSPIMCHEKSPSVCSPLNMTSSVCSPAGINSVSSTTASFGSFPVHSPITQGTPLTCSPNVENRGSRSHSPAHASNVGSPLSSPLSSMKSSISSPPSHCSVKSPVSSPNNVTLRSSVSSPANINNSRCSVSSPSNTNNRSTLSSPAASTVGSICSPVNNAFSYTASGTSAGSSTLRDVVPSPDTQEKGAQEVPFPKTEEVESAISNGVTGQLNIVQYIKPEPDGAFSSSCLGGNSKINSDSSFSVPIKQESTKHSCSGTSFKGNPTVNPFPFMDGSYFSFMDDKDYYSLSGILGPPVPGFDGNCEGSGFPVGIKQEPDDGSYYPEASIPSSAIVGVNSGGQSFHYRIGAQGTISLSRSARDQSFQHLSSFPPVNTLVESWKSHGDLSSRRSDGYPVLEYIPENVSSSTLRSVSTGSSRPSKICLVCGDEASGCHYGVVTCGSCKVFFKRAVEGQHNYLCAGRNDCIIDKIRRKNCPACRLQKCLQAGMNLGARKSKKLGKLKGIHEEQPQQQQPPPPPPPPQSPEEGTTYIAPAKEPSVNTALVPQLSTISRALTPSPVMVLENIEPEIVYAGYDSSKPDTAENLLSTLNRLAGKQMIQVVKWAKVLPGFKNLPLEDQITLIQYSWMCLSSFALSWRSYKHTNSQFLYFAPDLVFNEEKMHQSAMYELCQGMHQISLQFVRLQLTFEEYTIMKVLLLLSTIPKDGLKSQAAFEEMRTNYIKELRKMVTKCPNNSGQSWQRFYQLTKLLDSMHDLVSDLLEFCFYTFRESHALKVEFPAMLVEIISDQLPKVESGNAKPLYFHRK
As to the kind of experiment: Binding to the mineral corticoid receptor, recombinantly produced receptor.

For experiment [2], the target named is T3, progesterone receptor (PR) (Homo sapiens, UniProt P06401).
T3 construct: made in house
T3 sequence (P06401 1-933): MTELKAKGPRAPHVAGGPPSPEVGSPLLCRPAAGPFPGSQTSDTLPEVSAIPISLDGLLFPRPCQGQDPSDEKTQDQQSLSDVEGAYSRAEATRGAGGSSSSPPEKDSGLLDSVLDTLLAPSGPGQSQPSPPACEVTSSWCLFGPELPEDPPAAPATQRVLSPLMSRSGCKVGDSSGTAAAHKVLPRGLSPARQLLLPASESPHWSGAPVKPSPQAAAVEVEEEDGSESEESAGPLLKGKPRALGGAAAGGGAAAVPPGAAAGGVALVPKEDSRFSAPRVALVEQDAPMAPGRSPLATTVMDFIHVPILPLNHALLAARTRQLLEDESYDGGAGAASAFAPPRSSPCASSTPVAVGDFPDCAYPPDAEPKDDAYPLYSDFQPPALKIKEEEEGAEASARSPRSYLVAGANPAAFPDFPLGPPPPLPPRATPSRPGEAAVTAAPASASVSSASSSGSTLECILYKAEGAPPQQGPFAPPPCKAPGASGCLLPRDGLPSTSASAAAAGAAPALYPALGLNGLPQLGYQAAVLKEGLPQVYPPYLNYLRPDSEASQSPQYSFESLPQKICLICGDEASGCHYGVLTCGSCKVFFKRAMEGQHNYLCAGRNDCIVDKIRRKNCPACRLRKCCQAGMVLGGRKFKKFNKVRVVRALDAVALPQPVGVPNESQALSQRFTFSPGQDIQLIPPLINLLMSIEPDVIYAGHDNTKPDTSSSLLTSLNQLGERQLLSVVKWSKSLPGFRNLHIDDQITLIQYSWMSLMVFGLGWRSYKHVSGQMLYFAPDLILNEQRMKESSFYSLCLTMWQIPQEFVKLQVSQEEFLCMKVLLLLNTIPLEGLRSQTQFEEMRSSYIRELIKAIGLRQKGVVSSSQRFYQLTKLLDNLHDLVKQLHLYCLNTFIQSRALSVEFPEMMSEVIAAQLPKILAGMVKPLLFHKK
In words: Binding to the progesterone receptor, recombinantly produced receptor.

Experiment [3] concerns the target glucocorticoid receptor (GR) (Homo sapiens, UniProt P04150). As to the kind of experiment: biochemical. The text has this: The binding of the substances to the glucocorticoid receptor (GR) and other steroid hormone receptors (mineral corticoid receptor (MR), progesterone receptor (PR) and androgen receptor (AR)) is examined with the aid of recombinantly produced receptors. Cytosol preparations of Sf9 cells, which had been infected with recombinant baculoviruses that code for the GR, are used for the binding studies.

Sequence of glucocorticoid receptor (GR) (P04150 whole entry, species assumed): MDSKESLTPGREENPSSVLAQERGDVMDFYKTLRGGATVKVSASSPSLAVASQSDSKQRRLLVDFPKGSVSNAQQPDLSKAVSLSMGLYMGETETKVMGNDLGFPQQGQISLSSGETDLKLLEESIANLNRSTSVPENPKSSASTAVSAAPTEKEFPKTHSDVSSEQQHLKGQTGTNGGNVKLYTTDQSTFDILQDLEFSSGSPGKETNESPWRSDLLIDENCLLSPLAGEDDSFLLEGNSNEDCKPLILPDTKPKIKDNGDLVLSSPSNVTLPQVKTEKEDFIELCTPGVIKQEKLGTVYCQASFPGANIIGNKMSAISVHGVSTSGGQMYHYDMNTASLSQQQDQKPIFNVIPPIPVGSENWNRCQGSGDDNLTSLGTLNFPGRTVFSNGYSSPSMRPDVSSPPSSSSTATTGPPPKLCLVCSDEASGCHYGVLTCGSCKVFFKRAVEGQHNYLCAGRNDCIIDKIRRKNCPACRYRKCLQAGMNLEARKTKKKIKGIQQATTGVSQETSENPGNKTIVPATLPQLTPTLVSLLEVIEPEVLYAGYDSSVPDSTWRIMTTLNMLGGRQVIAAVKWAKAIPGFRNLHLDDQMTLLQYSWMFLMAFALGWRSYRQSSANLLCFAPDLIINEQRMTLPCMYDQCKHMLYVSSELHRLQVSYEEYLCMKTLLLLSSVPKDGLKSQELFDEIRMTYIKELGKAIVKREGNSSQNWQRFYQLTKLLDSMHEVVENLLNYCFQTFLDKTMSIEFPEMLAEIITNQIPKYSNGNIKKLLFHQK

For `CC(C)(CC(O)(CNc1cccc2ncccc12)C(F)(F)F)c1cc(F)ccc1O` (stereo not shown) [Example 4], the 50% inhibitory concentration (IC50) (in general, the concentration at which inhibition is half-maximal) at androgen receptor (AR) is above 1000 nM; in experiment [1], above 1000 nM; in experiment [2], above 1000 nM; in experiment [3] it was 0.6 to 1.3 nM.
